Test system: advanced lymphomas
Assay: Phase II multi-center trial in patients with advanced lymphomas
Type: in vivo, human
Protocol: A Phase II multi-center trial of SGLU-1 (darinaparsin) was conducted in patients diagnosed with advanced lymphomas. Eligible patients required therapy and received at least 1 prior therapy. Patients received 300 mg/m^2 of darinaparsin intravenously for 5 consecutive days every 28 days (1 cycle) and were then evaluated for efficacy and safety by standard criteria. Treatment continued until toxicity or progression. To date the study has accrued 22 patients (15 non Hodgkin's [NHL], 7 Hodgkin's); 12 are male and 10 are female. Median age at baseline was 60.5 years (range: 28-80), ECOG performance status was ≤2, and median number of prior therapies was 3 (range: 1-6). Thirteen subjects have received at least 2 cycles of SGLU-1 and are evaluable for efficacy. Of these, 1 (diagnosed with peripheral T-cell lymphoma (PTCL)) has achieved a complete response (CR), 3 (diagnosed with diffuse large B-cell, marginal zone, and Hodgkin's nodular sclerosis, respectively) have achieved partial responses (PRs), and 2 patients with NHL have achieved stable disease (SD). In the patient with marginal zone lymphoma who achieved PR, no evidence for macroscopic disease was present, but microscopic disease was detectable on random biopsies from normal appearing gastric mucosa. All responders had been heavily pretreated (PTCL: CHOP (cyclophosphamide, doxorubicin, vincristine, and prednisolone)×6, ICE (ifosfamide, carboplatin and etoposide)×1, and EPOCH (etoposide, vincristine, doxorubicin, cyclophosphamide, and prednisone)×2; diffuse B-cell: RCHOP (rituximab, cyclophosphamide, doxorubicin, vincristine, and prednisolone)×5, RICE (rituximab, ifosfamide, carboplatin and etoposide)×3, and radiation therapy; marginal zone: rituximab×8, RCVP (rituximab, cyclophosphamide, vincristine and prednisolone)×1, and gemcitabine×1; and Hodgkin's: ICE×1, CBV (cyclophosphamide, carmustine and etoposide)×1, gemcitabine+MDX-060 (Medarex)×6). A total of 49 cycles of SGLU-1 have been administered. The only Grade 3 adverse event (AE) considered drug-related was wheezing. A total of 12 subjects have reported 37 serious adverse events (SAEs) while on study. Of these, only 2 had SAEs that were considered drug-related (neutropenic fever, fall). […] Initial responses (1 CR, 3 PRs, 2 SDs) have been observed among 13 evaluable patients.

[1] = 300 mg/m^2 i.v. 5 consecutive days every 28 days, of 13 evaluable subjects

## C[As](C)SC[C@H](NC(=O)CC[C@H](N)C(=O)O)C(=O)NCC(=O)O [SGLU-1, S-(dimethylarsino) glutathione]
[1]
  complete response (CR): 1 patients
  partial responses (PRs): 3 patients
22 patients, 49 cycles
  Grade 3 adverse event (AE) considered drug-related: wheezing
  serious adverse events (SAEs) reported: 37
  subjects reporting serious adverse events (SAEs): 12 subjects
Heavily pretreated patients with advanced lymphoma
  tolerability: very well tolerated
Neutropenic fever, fall
  subjects with SAEs considered drug-related: 2 subjects

Source: patent publication US11324714B2 (priority 2008, dated 2022)
